The text below walks through data of ChEMBL document CHEMBL4665629, “An optimised series of substituted N-phenylpyrrolamides as DNA gyrase B inhibitors” (Eur J Med Chem, 2019).

Experiment [1] concerns Escherichia coli. Nature of the experiment: Antibacterial activity against efflux pump d effect ive Escherichia coli JW5503 harbouring tolC mutant assessed as bacterial growth inhibition at 50 uM incubated for 24 hrs by CLSI protocol based broth microdilution assay relative to control. The class given is functional.
Experiment [2] concerns the target DNA gyrase (Escherichia coli) (UniProt P0AES6+P0AES4). Nature of the experiment: Inhibition of Escherichia coli DNA gyrase assessed as residual activity at 1 uM using biotinylated oligonucleotide as substrate incubated for 30 mins in presence of ATP by fluorescence-based microplate reader assay relative to control. The class given is protein-complex assay.
In experiment [3] the test system is Staphylococcus aureus. Nature of the experiment: Antibacterial activity against Staphylococcus aureus ATCC 29213 assessed as bacterial growth inhibition at 50 uM incubated for 24 hrs by CLSI protocol based broth microdilution assay relative to control. The class given is functional. (In broth dilution the organism is exposed to a series of concentrations in liquid medium.)

The subject of experiment [4] is Klebsiella aerogenes. Nature of the experiment: Antibacterial activity against Enterobacter aerogenes ATCC 13408 assessed as bacterial growth inhibition at 50 uM incubated for 24 hrs by CLSI protocol based broth microdilution assay relative to control. The class given is functional.
For experiment [5], the system named is Escherichia coli. Nature of the experiment: Antibacterial activity against outer membrane impaired Escherichia coli JD17464 harboring lpxC mutant assessed as bacterial growth inhibition at 50 uM incubated for 24 hrs by CLSI protocol based broth microdilution assay relative to control. The class given is functional.
Experiment [6] has as its system Klebsiella pneumoniae. Nature of the experiment: Antibacterial activity against Klebsiella pneumoniae ATCC 700603 assessed as bacterial growth inhibition at 50 uM incubated for 24 hrs by CLSI protocol based broth microdilution assay relative to control. The class given is functional.
The test system of experiment [7] is Enterococcus faecalis. Nature of the experiment: Antibacterial activity against Enterococcus faecalis ATCC 29212 assessed as bacterial growth inhibition at 50 uM incubated for 24 hrs by CLSI protocol based broth microdilution assay relative to control. The class given is functional.
For experiment [8], the system named is Enterococcus faecium. Nature of the experiment: Antibacterial activity against Enterococcus faecium ATCC 35667 assessed as bacterial growth inhibition at 50 uM incubated for 24 hrs by CLSI protocol based broth microdilution assay relative to control. The class given is functional.
For experiment [9], the system named is Pseudomonas aeruginosa. Nature of the experiment: Antibacterial activity against Pseudomonas aeruginosa ATCC 27853 assessed as bacterial growth inhibition at 50 uM incubated for 24 hrs by CLSI protocol based broth microdilution assay relative to control. The class given is functional.
For experiment [10], the system named is Escherichia coli. Nature of the experiment: Antibacterial activity against Escherichia coli ATCC 25922 assessed as bacterial growth inhibition at 50 uM incubated for 24 hrs by CLSI protocol based broth microdilution assay relative to control. The class given is functional.
The subject of experiment [11] is Acinetobacter baumannii. Nature of the experiment: Antibacterial activity against Acinetobacter baumannii ATCC 19606 assessed as bacterial growth inhibition at 50 uM incubated for 24 hrs by CLSI protocol based broth microdilution assay relative to control. The class given is functional. The note with it: ATCC 19606 = CIP 70.34 = JCM 6841.
The target of experiment [12] is DNA gyrase (Escherichia coli, UniProt P0AES4+P0AES6). Nature of the experiment: Inhibition of Escherichia coli DNA gyrase using biotinylated oligonucleotide as substrate incubated for 30 mins in presence of ATP by fluorescence-based microplate reader assay. The class given is protein-complex assay.

On to `Cc1[nH]c(C(=O)Nc2ccc(S(N)(=O)=O)cc2)c(Cl)c1Cl`, for which the inhibition at 50 µM in experiment [1] worked out at 2%; in experiment [3] it was 12%; in experiment [4], 1%; in experiment [5], 4%; in [6], 4%; in [7] it was 6%. Also, the inhibition at 50 µM in [8] was 54%; in [9], -4%; in [10], 13%; in [11], 6%. Also, in [2], the Activity is 82%.

`COC(=O)[C@@H](C)NC(=O)c1ccc(NC(=O)c2[nH]c(C)c(Cl)c2Cl)c(OC(C)C)c1`: the inhibition at 50 µM in experiment [1] was 11%; in [3], 29%; in experiment [4], 12%; in experiment [5] it was 27%; in experiment [6], 16%; in experiment [7], -41%. For the same compound, the inhibition at 50 µM in experiment [8] is -15%; in experiment [9], 5%; in experiment [10], 12%; in [11], 8%. The Activity in experiment [2] was 87%.

`CCOC(=O)C(NC(=O)c1ccc(NC(=O)c2cc(Br)c(Br)[nH]2)cc1)C(=O)OCC`: the inhibition at 50 µM was -8% in experiment [1]; 12% in [3]; 1% in experiment [4]; 2% in experiment [5]; 1% in experiment [6]; 8% in experiment [7]. Besides, the inhibition at 50 µM in experiment [8] was -8%; in experiment [9], 5%; in experiment [10], 9%; in experiment [11], 3%. Moreover, in experiment [2], the Activity was determined as 78%.

Consider `COC(=O)CNC(=O)c1ccc(NC(=O)c2cc(Br)c(Br)[nH]2)c(OC2CCN(C(=O)OC(C)(C)C)CC2)c1`, for which the inhibition at 50 µM in experiment [1] is -4%; in experiment [3], -17%; in [4], -9%; in experiment [5], 1%; in [6], -12%; in [8], -75%. The inhibition at 50 µM in [9] is -1%; in experiment [10] it was -8%; in experiment [11], -4%. The Activity in experiment [2] is 100%.

As for `Cc1[nH]c(C(=O)Nc2ccc(S(=O)(=O)Nc3nccs3)cc2)c(Cl)c1Cl`, the inhibition at 50 µM in [1] is 5%; in experiment [3], -2%; in experiment [4] it was -2%; in experiment [5], 17%; in experiment [6] it was 1%; in experiment [7], 23%. The inhibition at 50 µM is 43% in experiment [8], 10% in experiment [9], 13% in experiment [10] and 10% in [11]. For the same compound, in experiment [2], the Activity turned out to be 100%.

Take `Cc1[nH]c(C(=O)Nc2ccc(S(=O)(=O)NCC(=O)O)cc2)c(Cl)c1Cl`: the inhibition at 50 µM was 6% in [1]; 4% in experiment [3]; 7% in [4]; 1% in experiment [5]; 7% in experiment [6]; 9% in [7]. In addition, the inhibition at 50 µM in experiment [8] was 3%; in experiment [9], -4%; in experiment [10], 7%; in [11], 5%. The Activity in experiment [2] turned out to be 87%.

In the case of `CCOC(=O)c1cc2cc(NC(=O)c3[nH]c(C)c(Cl)c3Cl)ccc2[nH]1`, in experiment [2], the Activity stood at 100%.

Regarding `COC(=O)CNS(=O)(=O)c1ccc(NC(=O)c2[nH]c(C)c(Cl)c2Cl)cc1`, the inhibition at 50 µM is -1% in experiment [1]; 12% in [3]; -4% in experiment [4]; 4% in [5]; 1% in [6]; 8% in experiment [7]. Moreover, the inhibition at 50 µM turned out to be 34% in experiment [8], 5% in experiment [9], 18% in [10] and 9% in experiment [11]. The Activity in [2] turned out to be 87%.

In the case of `CCOC(=O)C(NC(=O)c1ccc(NC(=O)c2[nH]c(C)c(Cl)c2Cl)cc1)C(=O)OCC`, the inhibition at 50 µM came to 8% in experiment [1]; 32% in [3]; 11% in [4]; 8% in experiment [5]; 18% in [6]; 14% in [7]. Also, the inhibition at 50 µM in experiment [8] is 11%; in experiment [9], -6%; in [10], 13%; in experiment [11], 9%. Further, in [12], the IC50 worked out at 7700 nM.

Take `COC(=O)CNC(=O)c1ccc(NC(=O)c2[nH]c(C)c(Cl)c2Cl)c(O[C@H]2CCN(C(=O)OC(C)(C)C)C2)c1`: the inhibition at 50 µM in experiment [1] was -4%; in experiment [3], 12%; in experiment [4] it was 7%; in experiment [5], 30%; in experiment [6], 8%; in experiment [8], 23%. The inhibition at 50 µM was 12% in experiment [9], 10% in experiment [10] and 9% in experiment [11]. The Activity in experiment [2] was found to be 93%.

With `Cc1[nH]c(C(=O)Nc2ccc(C(=O)NCC(=O)O)cc2O[C@H]2CCN(C(=O)OC(C)(C)C)C2)c(Cl)c1Cl`, the inhibition at 50 µM in experiment [1] is 2%; in experiment [3], -1%; in experiment [4] it was 6%; in experiment [5], -2%; in [6] it was 9%; in experiment [8] it was 9%. Besides, the inhibition at 50 µM is 14% in [9], 5% in experiment [10] and 1% in [11]. In [12], the IC50 was 92 nM.

Turning to `COC(=O)[C@@H](C)NC(=O)c1ccc(NC(=O)c2[nH]c(C)c(Cl)c2Cl)c(OC2CCN(C(=O)OC(C)(C)C)CC2)c1`, the inhibition at 50 µM came out at 40% in experiment [1]; 30% in [3]; 22% in [4]; 44% in [5]; 2% in [6]; 52% in experiment [8]. The inhibition at 50 µM in experiment [9] is 33%; in experiment [10] it was 18%; in experiment [11], 36%. The Activity in experiment [2] stood at 94%.

In the case of `COC(=O)CNC(=O)c1ccc(NC(=O)c2[nH]c(C)c(Cl)c2Cl)c(OC2CCN(C(=O)OC(C)(C)C)CC2)c1`, the inhibition at 50 µM in [1] was 7%; in [3] it was 8%; in experiment [4], 5%; in experiment [5], 31%; in experiment [6], -2%; in [8], -19%. Moreover, the inhibition at 50 µM in [9] is -18%; in [10], 26%; in experiment [11], 15%. Also, the Activity in experiment [2] came out at 100%.

For the compound `N#CCNC(=O)c1ccc(NC(=O)c2cc(Br)c(Br)[nH]2)cc1`, the inhibition at 50 µM in experiment [1] is -9%; in experiment [3], -5%; in [4] it was 7%; in [5], -5%; in experiment [6], 5%; in experiment [7] it was 7%. Besides, the inhibition at 50 µM in experiment [8] came out at 2%; in experiment [9] it was 11%; in experiment [10] it was 2%; in [11] it was 2%. The IC50 in [12] came out at 960 nM.

For the compound `CC(C)(C)OC(=O)N1CCC(Oc2cc(C(=O)NCC(=O)O)ccc2NC(=O)c2cc(Br)c(Br)[nH]2)CC1`, the inhibition at 50 µM in experiment [1] was -4%; in experiment [3] it was -18%; in [4], -14%; in experiment [5] it was -6%; in experiment [6], 9%; in experiment [8], -76%. The inhibition at 50 µM in experiment [9] is 6%; in [10] it was -14%; in experiment [11], -4%. In addition, in [12], the IC50 is 630 nM.

The inhibition is the drop in the measured response relative to a control, in per cent. What is called IC50 is the concentration needed to halve the response being measured.
